According to article PMC3872530 (Molecular microbiology, 2013):

Columns and labels:
Experiment in all cases: whole-cell EPR of [2Fe-2S] cluster
Assay type in all cases: cell-based
PaSoxR = PaSoxR (Pseudomonas aeruginosa, UniProt Q51506); settings: oxidant, 40 min, E. coli XA90, EPR at 15 K
EcSoxR = biological target: T1, EcSoxR (Escherichia coli, UniProt P0ACS2); settings: oxidant, 40 min, E. coli XA90, EPR at 15 K
T1 sequence (P0ACS2 1-154): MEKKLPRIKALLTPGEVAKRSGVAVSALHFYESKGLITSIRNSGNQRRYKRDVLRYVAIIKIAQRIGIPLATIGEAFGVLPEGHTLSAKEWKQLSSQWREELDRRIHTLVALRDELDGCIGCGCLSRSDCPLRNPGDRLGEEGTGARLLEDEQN

ScSoxR = biological target: T2, ScSoxR (Streptomyces coelicolor, UniProt Q9S255); settings: oxidant; 50 uM, 40 min, E. coli XA90, EPR at 15 K
T2 sequence (Q9S255 1-175): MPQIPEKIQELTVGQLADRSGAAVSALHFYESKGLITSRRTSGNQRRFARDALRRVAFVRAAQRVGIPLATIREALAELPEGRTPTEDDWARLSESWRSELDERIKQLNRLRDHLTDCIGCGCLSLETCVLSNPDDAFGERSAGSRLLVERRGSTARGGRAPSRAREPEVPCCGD

PaSoxR, sequence (Q51506 whole entry): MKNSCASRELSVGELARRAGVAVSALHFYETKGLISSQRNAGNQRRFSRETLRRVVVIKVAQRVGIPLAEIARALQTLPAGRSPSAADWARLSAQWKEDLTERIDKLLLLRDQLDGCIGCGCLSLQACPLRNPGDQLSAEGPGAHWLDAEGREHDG

Row | SMILES | whole-cell EPR of [2Fe-2S] cluster (PaSoxR; 50 uM) | whole-cell EPR of [2Fe-2S] cluster (EcSoxR; 50 uM) | whole-cell EPR of [2Fe-2S] cluster (ScSoxR) | whole-cell EPR of [2Fe-2S] cluster (PaSoxR; 100 uM, partial effect) | whole-cell EPR of [2Fe-2S] cluster (EcSoxR; 100 uM)
1 | C[n+]1c2ccccc2nc2ccccc21 [PMS, phenazine methosulfate] | PMS always silenced the spectral peaks | The spectra disappeared upon treatment with PQ and PMS | The cluster was oxidized to its EPR-silent state when the cells were treated with PMS |  | 
2 | C[n+]1ccc(-c2cc[n+](C)cc2)cc1 [PQ, paraquat] |  |  |  | PQ was partially effective in oxidizing the [2Fe-2S] cluster | The spectra disappeared upon treatment with PQ and PMS
